Here are results for ten compounds from PMC9848286, “Design, synthesis, and biological investigation of oxadiazolyl, thiadiazolyl, and pyrimidinyl linked antipyrine derivatives as potential non-acidic anti-inflammatory agents” (Journal of Enzyme Inhibition and Medicinal Chemistry, 2023).

The target in one series is T1, COX-1 (Ovis aries, UniProt P05979).
T1 sequence (P05979 25-600): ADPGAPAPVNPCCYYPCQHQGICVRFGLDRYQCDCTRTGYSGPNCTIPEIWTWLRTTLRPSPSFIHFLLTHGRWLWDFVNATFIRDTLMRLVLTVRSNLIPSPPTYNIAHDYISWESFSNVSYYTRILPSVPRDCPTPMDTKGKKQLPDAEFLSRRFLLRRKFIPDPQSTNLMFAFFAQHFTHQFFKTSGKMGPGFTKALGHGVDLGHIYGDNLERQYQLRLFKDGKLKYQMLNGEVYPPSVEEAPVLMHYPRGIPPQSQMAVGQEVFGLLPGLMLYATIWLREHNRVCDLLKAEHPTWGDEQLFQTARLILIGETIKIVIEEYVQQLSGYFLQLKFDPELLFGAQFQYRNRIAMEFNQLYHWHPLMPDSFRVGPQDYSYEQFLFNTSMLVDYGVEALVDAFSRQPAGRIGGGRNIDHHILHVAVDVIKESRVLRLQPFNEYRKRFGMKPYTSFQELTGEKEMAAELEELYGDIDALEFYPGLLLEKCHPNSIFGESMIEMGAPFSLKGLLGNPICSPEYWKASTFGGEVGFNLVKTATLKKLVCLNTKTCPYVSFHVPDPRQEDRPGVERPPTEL
Briefly: In vitro COX-1 inhibition, colorimetric screening assay kit. Particulars: for HillSlope (best-fit value), COX-1 inhibition / LogIC50 (best-fit value), COX-1 inhibition: supplementary dose-response curve.

A further series addresses T2, COX-2 (Homo sapiens, UniProt P35354).
T2 sequence (P35354 18-604): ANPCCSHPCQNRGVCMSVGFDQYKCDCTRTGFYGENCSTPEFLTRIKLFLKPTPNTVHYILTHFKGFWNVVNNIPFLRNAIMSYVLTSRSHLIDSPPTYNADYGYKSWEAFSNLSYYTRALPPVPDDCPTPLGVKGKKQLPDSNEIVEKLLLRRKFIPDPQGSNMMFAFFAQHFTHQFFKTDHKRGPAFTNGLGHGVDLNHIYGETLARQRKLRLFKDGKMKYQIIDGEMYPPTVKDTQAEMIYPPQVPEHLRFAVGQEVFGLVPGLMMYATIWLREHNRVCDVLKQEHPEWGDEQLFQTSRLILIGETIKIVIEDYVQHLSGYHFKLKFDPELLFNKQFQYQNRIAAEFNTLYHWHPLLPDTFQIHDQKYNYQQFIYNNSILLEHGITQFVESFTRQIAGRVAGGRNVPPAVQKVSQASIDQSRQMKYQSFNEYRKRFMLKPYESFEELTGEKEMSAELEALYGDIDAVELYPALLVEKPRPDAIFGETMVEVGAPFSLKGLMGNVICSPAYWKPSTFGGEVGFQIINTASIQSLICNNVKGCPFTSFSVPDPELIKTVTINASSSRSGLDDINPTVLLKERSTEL
Kind of series: In vitro COX-2 inhibition, colorimetric screening assay kit. The conditions noted are these: for (SI) in vitro COX-2 selectivity index: COX-1 IC50/COX-2 IC50; for HillSlope (best-fit value), COX-2 inhibition / LogIC50 (best-fit value), COX-2 inhibition: supplementary dose-response curve.

Experimental for COX-1: (§1) This assay examined the inhibitory potency of the target structures towardboth COX isoforms via colorimetric screening assay kit (Cayman Chemical, MI, United States) based on the directions provided by the manufacturer. ELISA reader Thermo Scientific Multiskan® EX (Thermo scientific, United States) was used. […] Serial dilutions of CLX, as a reference standard, and tested compounds at concentrations of 1000, 300, 100, 30, 10, 3, 1, and 0.30 nM were used in the assay. IC50 of the tested compounds were determined using three different experiments. The selectivity (SI) of each ompound was measured using the COX-2/COX-1 ratio, which compares the IC50 of COX-2 and COX-1.
Experimental for COX-2: as §1

The melting point is the temperature of the solid-liquid transition. What is called IC50 is the concentration that gives 50% inhibition. Lower therefore signals higher potency. Regarding `Cc1ccc(-c2nnc(SCC(=O)Nc3c(C)n(C)n(-c4ccccc4)c3=O)o2)cc1` [4a, N-(1,5-Dimethyl-3-oxo-2-phenyl-2,3-dihydro-1H-pyrazol-4-yl)-2-((5-(p-tolyl)-1,3,4-oxadiazol-2-yl)thio)acetamide], the melting point is 234 to 236 °C. Also, on COX-1, the IC50 amounted to 178 ± 2.15 nM; the “HillSlope (best-fit value), COX-1 inhibition” value (“HillSlope … COX-1 inhibition” for short) is -0.3744; the “LogIC50 (best-fit value), COX-1 inhibition” value (from here on “LogIC50 … COX-1 inhibition”) was 2.252 Log (nM). In addition, at COX-2, the IC50 was 86.9 ± 2.19 nM; the “(SI) in vitro COX-2 selectivity index” value stood at 2.05; the “HillSlope (best-fit value), COX-2 inhibition” value (“HillSlope … COX-2 inhibition” below) was -0.3184; the “LogIC50 (best-fit value), COX-2 inhibition” value (“LogIC50 … COX-2 inhibition” for short) was 1.939 Log (nM).
The compound `Cc1c(NC(=O)CSc2nnc(-c3ccc([N+](=O)[O-])cc3)o2)c(=O)n(-c2ccccc2)n1C` [4d, N-(1,5-Dimethyl-3-oxo-2-phenyl-2,3-dihydro-1H-pyrazol-4-yl)-2-((5–(4-nitrophenyl)-1,3,4-oxadiazol-2-yl)thio)acetamide] had a melting point of 214 to 216 °C. Further, on COX-1, the IC50 was 50.8 ± 2.18 nM; the “HillSlope … COX-1 inhibition” value is given as -0.3754; the “LogIC50 … COX-1 inhibition” value is on record as 1.705 Log (nM). Further, at COX-2, it took 65.5 ± 2.23 nM to reach half-maximal inhibition (IC50); the “(SI) in vitro COX-2 selectivity index” value came out at 0.77; the “HillSlope … COX-2 inhibition” value was -0.3340; the “LogIC50 … COX-2 inhibition” value was 1.817 Log (nM).
`Cc1c(NC(=O)CSc2nnc(NC(=O)Nc3ccccc3)s2)c(=O)n(-c2ccccc2)n1C` [6a, N-(1,5-Dimethyl-3-oxo-2-phenyl-2,3-dihydro-1H-pyrazol-4-yl)-2-((5–(3-phenylureido)-1,3,4-thiadiazol-2-yl)thio)acetamide] displayed a melting point of 254 to 256 °C. Also, at COX-1, the IC50 is 132 ± 2.36 nM; the “HillSlope … COX-1 inhibition” value is on record as -0.3215; the “LogIC50 … COX-1 inhibition” value is reported as 2.119 Log (nM). Further, on COX-2, the midpoint of inhibition, the IC50, lay at 155 ± 2.07 nM; the “(SI) in vitro COX-2 selectivity index” value is 0.85; the “HillSlope … COX-2 inhibition” value was -0.3826; the “LogIC50 … COX-2 inhibition” value is listed as 2.190 Log (nM).
`Cc1ccc(NC(=O)Nc2nnc(SCC(=O)Nc3c(C)n(C)n(-c4ccccc4)c3=O)s2)cc1` [6b, N-(1,5-Dimethyl-3-oxo-2-phenyl-2,3-dihydro-1H-pyrazol-4-yl)-2-((5–(3-(p-tolyl)ureido)-1,3,4-thiadiazol-2-yl)thio)acetamide]: the melting point lay within 253 to 255 °C. On COX-1, the IC50 worked out at 82.3 ± 2.28 nM; the “HillSlope … COX-1 inhibition” value is reported as -0.3398; the “LogIC50 … COX-1 inhibition” value is listed as 1.915 Log (nM). Also, on COX-2, the IC50 was found to be 104 ± 2.25 nM; the “(SI) in vitro COX-2 selectivity index” value is on record as 0.79; the “HillSlope … COX-2 inhibition” value is -0.2866; the “LogIC50 … COX-2 inhibition” value was 2.016 Log (nM).
`COc1ccc(NC(=O)Nc2nnc(SCC(=O)Nc3c(C)n(C)n(-c4ccccc4)c3=O)s2)cc1` [6c, N-(1,5-Dimethyl-3-oxo-2-phenyl-2,3-dihydro-1H-pyrazol-4-yl)-2-((5–(3-(4-methoxyphenyl)ureido)-1,3,4-thiadiazol-2-yl)thio)acetamide] displayed a melting point of 250 to 252 °C. Further, at COX-1, half-maximal inhibition (IC50) required 282.1 ± 2.34 nM; the “HillSlope … COX-1 inhibition” value is -0.2958; the “LogIC50 … COX-1 inhibition” value is listed as 2.450 Log (nM). For the same compound, at COX-2, the concentration for half-maximal inhibition (IC50) came to 86.1 ± 2.26 nM; the “(SI) in vitro COX-2 selectivity index” value is reported as 3.28; the “HillSlope … COX-2 inhibition” value is -0.3558; the “LogIC50 … COX-2 inhibition” value is 1.935 Log (nM).
Compound `Cc1c(NC(=O)CSc2nnc(NC(=O)Nc3ccc(Cl)cc3)s2)c(=O)n(-c2ccccc2)n1C` [6d, 2-((5–(3-(4-Chlorophenyl)ureido)-1,3,4-thiadiazol-2-yl)thio)-N-(1,5-dimethyl-3-oxo-2-phenyl-2,3-dihydro-1H-pyrazol-4-yl)acetamide] came in with a melting point of 248 to 250 °C. Further, at COX-1, the IC50 is 106 ± 2.16 nM; the “HillSlope … COX-1 inhibition” value is recorded as -0.3655; the “LogIC50 … COX-1 inhibition” value is on record as 2.025 Log (nM). On COX-2, 169 ± 2.34 nM corresponded to half-maximal inhibition (IC50); the “(SI) in vitro COX-2 selectivity index” value was found to be 0.63; the “HillSlope … COX-2 inhibition” value was -0.3273; the “LogIC50 … COX-2 inhibition” value is on record as 2.228 Log (nM).
In turn, `Cc1ccc(-c2nc(SCC(=O)Nc3c(C)n(C)n(-c4ccccc4)c3=O)[nH]c(=O)c2C#N)cc1` [8a, 2-((5-Cyano-6-oxo-4-(p-tolyl)-1,6-dihydropyrimidin-2-yl)thio)-N-(1,5-dimethyl-3-oxo-2-phenyl-2,3-dihydro-1H-pyrazol-4-yl)acetamide] showed a melting point of over 300 °C. Further, at COX-1, the IC50 was 139 ± 2.31 nM; the “HillSlope … COX-1 inhibition” value was -0.3685; the “LogIC50 … COX-1 inhibition” value is on record as 2.142 Log (nM). Also, on COX-2, the IC50 was 88.6 ± 2.19 nM; the “(SI) in vitro COX-2 selectivity index” value was 1.57; the “HillSlope … COX-2 inhibition” value is listed as -0.3794; the “LogIC50 … COX-2 inhibition” value is recorded as 1.948 Log (nM).
`Cc1c(NC(=O)CSc2nc(-c3ccc(Cl)cc3)c(C#N)c(=O)[nH]2)c(=O)n(-c2ccccc2)n1C` [8b, 2-((4–(4-Chlorophenyl)-5-cyano-6-oxo-1,6-dihydropyrimidin-2-yl)thio)-N-(1,5-dimethyl-3-oxo-2-phenyl-2,3-dihydro-1H-pyrazol-4-yl)acetamide] gave a melting point of 239 to 241 °C. Besides, on COX-1, the IC50 is 209 ± 2.21 nM; the “HillSlope … COX-1 inhibition” value was -0.3071; the “LogIC50 … COX-1 inhibition” value is 2.320 Log (nM). Moreover, on COX-2, the IC50 amounted to 120 ± 2.06 nM; the “(SI) in vitro COX-2 selectivity index” value is given as 1.74; the “HillSlope … COX-2 inhibition” value is on record as -0.3650; the “LogIC50 … COX-2 inhibition” value is recorded as 2.079 Log (nM).
In the case of `Cc1c(NC(=O)CSc2nc(-c3ccc(Br)cc3)c(C#N)c(=O)[nH]2)c(=O)n(-c2ccccc2)n1C` [8c, 2-((4–(4-Bromophenyl)-5-cyano-6-oxo-1,6-dihydropyrimidin-2-yl)thio)-N-(1,5-dimethyl-3-oxo-2-phenyl-2,3-dihydro-1H-pyrazol-4-yl)acetamide], the melting point is 243 to 245 °C. In addition, at COX-1, it took 164 ± 2.39 nM to reach half-maximal inhibition (IC50); the “HillSlope … COX-1 inhibition” value is recorded as -0.2705; the “LogIC50 … COX-1 inhibition” value is 2.214 Log (nM). Further, on COX-2, half-maximal inhibition (IC50) required 130 ± 2.1 nM; the “(SI) in vitro COX-2 selectivity index” value was found to be 1.26; the “HillSlope … COX-2 inhibition” value is on record as -0.3953; the “LogIC50 … COX-2 inhibition” value is 2.113 Log (nM).
Compound `COc1ccc(-c2nc(SCC(=O)Nc3c(C)n(C)n(-c4ccccc4)c3=O)[nH]c(=O)c2C#N)cc1` [8d, 2-((5-Cyano-4–(4-methoxyphenyl)-6-oxo-1,6-dihydropyrimidin-2-yl)thio)-N-(1,5-dimethyl-3-oxo-2-phenyl-2,3-dihydro-1H-pyrazol-4-yl)acetamide] came in with a melting point of 166 to 168 °C. Besides, at COX-1, the 50% inhibitory concentration (IC50) came to 91.6 ± 2.15 nM; the “HillSlope … COX-1 inhibition” value is given as -0.3099; the “LogIC50 … COX-1 inhibition” value was 1.962 Log (nM). On COX-2, the IC50 came out at 68.7 ± 2.19 nM; the “(SI) in vitro COX-2 selectivity index” value came to 1.33; the “HillSlope … COX-2 inhibition” value is recorded as -0.3543; the “LogIC50 … COX-2 inhibition” value is 1.837 Log (nM).
